{
  "source": "ChEMBL document CHEMBL1151757",
  "about": "“Synthesis, radiosynthesis, and biological evaluation of fluorine-18-labeled 2beta-carbo(fluoroalkoxy)-3beta-(3'-((Z)-2-haloethenyl)phenyl)nortropanes: candidate radioligands for in vivo imaging of the serotonin transporter with positron emission tomography” (J Med Chem, 2008)",
  "format_in_all_cases": "cell-based",
  "key": {"[1]": {"biological_target": "Sodium-dependent dopamine transporter (Homo sapiens, UniProt Q01959)", "sequence (Q01959 whole entry)": "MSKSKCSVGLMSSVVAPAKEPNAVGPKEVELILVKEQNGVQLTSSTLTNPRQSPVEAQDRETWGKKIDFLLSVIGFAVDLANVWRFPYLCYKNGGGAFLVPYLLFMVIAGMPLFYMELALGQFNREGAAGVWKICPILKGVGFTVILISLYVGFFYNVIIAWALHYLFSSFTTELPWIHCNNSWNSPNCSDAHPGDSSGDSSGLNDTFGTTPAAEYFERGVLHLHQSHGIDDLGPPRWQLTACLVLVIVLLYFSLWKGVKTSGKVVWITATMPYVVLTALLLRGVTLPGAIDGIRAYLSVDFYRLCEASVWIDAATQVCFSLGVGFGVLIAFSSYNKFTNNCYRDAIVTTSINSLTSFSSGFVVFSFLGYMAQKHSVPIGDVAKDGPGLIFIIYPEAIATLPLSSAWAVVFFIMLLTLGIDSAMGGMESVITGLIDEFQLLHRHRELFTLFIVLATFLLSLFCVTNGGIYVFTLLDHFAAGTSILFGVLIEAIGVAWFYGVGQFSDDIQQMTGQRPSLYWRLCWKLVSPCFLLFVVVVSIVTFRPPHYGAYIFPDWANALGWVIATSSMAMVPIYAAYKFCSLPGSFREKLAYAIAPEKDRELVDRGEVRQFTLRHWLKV", "assay": "Displacement of [3H]RTI-55 from human DAT transfected in human HEK293 cells"}, "[2]": {"biological_target": "Sodium-dependent noradrenaline transporter (Homo sapiens, UniProt P23975)", "sequence (P23975 whole entry)": "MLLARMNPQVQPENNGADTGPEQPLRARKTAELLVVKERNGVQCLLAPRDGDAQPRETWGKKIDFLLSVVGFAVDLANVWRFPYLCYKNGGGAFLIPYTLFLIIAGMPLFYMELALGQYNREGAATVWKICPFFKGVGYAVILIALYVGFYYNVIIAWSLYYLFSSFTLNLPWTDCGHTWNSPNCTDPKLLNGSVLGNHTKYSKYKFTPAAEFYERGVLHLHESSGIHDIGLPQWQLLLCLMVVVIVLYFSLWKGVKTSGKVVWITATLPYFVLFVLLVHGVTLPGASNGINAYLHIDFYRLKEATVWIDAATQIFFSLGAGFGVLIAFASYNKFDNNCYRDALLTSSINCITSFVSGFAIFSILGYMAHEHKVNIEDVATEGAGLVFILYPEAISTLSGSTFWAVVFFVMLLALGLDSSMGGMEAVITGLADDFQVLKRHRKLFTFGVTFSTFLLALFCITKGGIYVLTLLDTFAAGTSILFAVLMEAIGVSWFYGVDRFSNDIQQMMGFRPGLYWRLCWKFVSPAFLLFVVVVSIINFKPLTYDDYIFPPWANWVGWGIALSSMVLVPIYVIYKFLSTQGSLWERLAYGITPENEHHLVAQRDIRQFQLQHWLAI", "assay": "Displacement of [3H]nisoxetine from human NET transfected in human HEK293 cells"}, "HEK293 [3]": {"tested_on": "HEK293", "assay": "Selectivity for human NET over human SERT transfected in human HEK293 cells"}, "[4]": {"biological_target": "Sodium-dependent serotonin transporter (Homo sapiens, UniProt P31645)", "sequence (P31645 whole entry)": "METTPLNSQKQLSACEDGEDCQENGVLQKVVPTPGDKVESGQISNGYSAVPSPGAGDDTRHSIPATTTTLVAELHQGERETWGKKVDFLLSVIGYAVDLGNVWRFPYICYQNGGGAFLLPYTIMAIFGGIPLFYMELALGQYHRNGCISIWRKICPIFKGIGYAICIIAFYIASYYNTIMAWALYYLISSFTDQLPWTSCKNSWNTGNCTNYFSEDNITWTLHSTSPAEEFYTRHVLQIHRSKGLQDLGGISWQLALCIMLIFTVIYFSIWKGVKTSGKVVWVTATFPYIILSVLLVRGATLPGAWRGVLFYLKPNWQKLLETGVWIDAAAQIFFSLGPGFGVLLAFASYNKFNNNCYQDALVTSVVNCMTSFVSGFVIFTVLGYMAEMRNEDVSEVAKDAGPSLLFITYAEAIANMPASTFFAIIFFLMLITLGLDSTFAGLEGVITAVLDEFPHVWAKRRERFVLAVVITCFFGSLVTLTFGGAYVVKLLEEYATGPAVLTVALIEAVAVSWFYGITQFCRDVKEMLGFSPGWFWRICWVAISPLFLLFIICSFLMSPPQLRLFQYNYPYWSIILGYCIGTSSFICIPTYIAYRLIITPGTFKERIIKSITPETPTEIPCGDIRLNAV", "assay": "Displacement of [3H](R,S)citalopram.HBr from human SERT transfected in human HEK293 cells"}, "HEK293 [5]": {"tested_on": "HEK293", "assay": "Selectivity for human DAT over human SERT transfected in human HEK293 cells"}},
  "data": [
    {"smiles": "O=C(OCCF)C1C2CCC(CC1c1cccc(/C=C/I)c1)N2", "note": "(trans isomer)", "values": [
      {"measurement": "Ki", "setting": "[1]", "result": 274, "unit": "nM"},
      {"measurement": "Ki", "setting": "[2]", "result": 1180, "unit": "nM"},
      {"measurement": "Ratio Ki", "setting": "HEK293 [3]", "result": 78},
      {"measurement": "Ki", "setting": "[4]", "result": 15.2, "unit": "nM"},
      {"measurement": "Ratio Ki", "setting": "HEK293 [5]", "result": 18}
    ]},
    {"smiles": "O=C(OCCCF)C1C2CCC(CC1c1cccc(/C=C\\I)c1)N2", "note": "(stereo not given)", "values": [
      {"measurement": "Ki", "setting": "[1]", "result": 180, "unit": "nM"},
      {"measurement": "Ki", "setting": "[2]", "result": 67.5, "unit": "nM"},
      {"measurement": "Ratio Ki", "setting": "HEK293 [3]", "result": 260},
      {"measurement": "Ki", "setting": "[4]", "result": 0.26, "unit": "nM"},
      {"measurement": "Ratio Ki", "setting": "HEK293 [5]", "result": 691}
    ]},
    {"smiles": "O=C(OCCF)C1C2CCC(CC1c1cccc(/C=C\\I)c1)N2", "note": "(stereo not given)", "values": [
      {"measurement": "Ki", "setting": "[1]", "result": 87.6, "unit": "nM"},
      {"measurement": "Ki", "setting": "[2]", "result": 110, "unit": "nM"},
      {"measurement": "Ratio Ki", "setting": "HEK293 [3]", "result": 256},
      {"measurement": "Ki", "setting": "[4]", "result": 0.43, "unit": "nM"},
      {"measurement": "Ratio Ki", "setting": "HEK293 [5]", "result": 204}
    ]},
    {"smiles": "O=C(OCCCF)C1C2CCC(CC1c1cccc(/C=C\\Br)c1)N2", "note": "(stereo not given)", "values": [
      {"measurement": "Ki", "setting": "[1]", "result": 119, "unit": "nM"},
      {"measurement": "Ki", "setting": "[2]", "result": 30.2, "unit": "nM"},
      {"measurement": "Ratio Ki", "setting": "HEK293 [3]", "result": 92},
      {"measurement": "Ki", "setting": "[4]", "result": 0.33, "unit": "nM"},
      {"measurement": "Ratio Ki", "setting": "HEK293 [5]", "result": 360}
    ]},
    {"smiles": "O=C(OCCF)C1C2CCC(CC1c1cccc(/C=C\\Br)c1)N2", "note": "(stereo not given)", "values": [
      {"measurement": "Ki", "setting": "[1]", "result": 35.5, "unit": "nM"},
      {"measurement": "Ki", "setting": "[2]", "result": 101, "unit": "nM"},
      {"measurement": "Ratio Ki", "setting": "HEK293 [3]", "result": 307},
      {"measurement": "Ki", "setting": "[4]", "result": 0.33, "unit": "nM"},
      {"measurement": "Ratio Ki", "setting": "HEK293 [5]", "result": 108}
    ]}
  ]
}
